Results: patent US20250163119A1, “COMPOUNDS FOR THE TREATMENT OF DIABETES OR OBESITY” (Eli Lilly and Company, priority 2023, published 2025)
*1 amine or outer side, *2 acyl side, *3 side chain or, on linkers, in order; H or OH if unused. Where a SMILES comes first, the peptide text is derived from it. Side-chain parts run from the residue outwards. [ ]: non-standard residue; d: D form. The star is where a group is joined. C20 diacid = O=C(O)CCCCCCCCCCCCCCCCCCC(=O)*; γGlu = O=C(O)[C@H](CCC(=O)[*:2])N[*:1]; NMeI = CC[C@H](C)[C@H](NC)C(=O)O; AEEA = NCCOCCOCC(=O)O

Experiments:
[1] = In vivo Diet Induced Obesity (DIO) model, chronic dose administration; set-up: species or system C57BL6 mice; details: DIO mice; 30 nmol/kg s.c.; pooled data from four studies; mean
Source text: The DIO model represents a pre-diabetic state that is obese. These animals, although not diabetic, display insulin resistance, dyslipidemia, and hepatic steatosis, all characteristics of metabolic syndrome, after being placed on a high fat (60% Kcal from fat) diet for 12 weeks (Surwit R S et al., Diet-induced type II diabetes in C57BL/6J mice. Diabetes 37(9): 1163-7 (1988)). Assessment of body weight change from start of study, fat mass change from start of study, lean mass change from start of study, and fasting glucose or glucose change from vehicle in same study substantially as set forth below. In the case of SEQ ID NO:55 combined with SEQ ID NO:25, tibialis anterior muscle weight at the end of the study is also reported as a measure of effect on muscle weight.
Male C57BL6 mice 22-24 weeks old (on high fat diet since 6 weeks of age, Jackson Laboratories 3800050; Bar Harbor, ME) are housed 1 per cage and maintained on D12492 chow (60% lard high fat diet: Research diets New Brunswick NJ) for 2 weeks in the vivarium and on a normal light cycle prior to experiment start. Animals were randomized by body weight to treatment groups using block randomization. On day 1 of experiment animals and food were weighed and recorded. Animals were separated in to two equal groups and started on separate days (data combined) to simplify the logistics of the study. Animals are given a single subcutaneous injection (s.c.) of the indicated treatment in 40 mM Tris HCl pH8.0+50 mM D-mannitol+0.02% polysorbate 80 on days 1(start), 4, 7, 10, and 13 of experiment at a volume of 10 ml/kg. […]
From study day 1 to study day 14 the animals were weighed daily prior to dose administration. […] The weight was recorded.
On Study Day 14, the animals were fasted overnight (approximately 16-18 hours) by placing them in a clean cage with a clean wire rack without food but allowed access to water, and on day 15 animals were subjected to fasting blood glucose measurement as follows; the tail of the animal was resected and a blood samples was collected and blood glucose was measured using an Accu-Chek Aviva glucose meter (Roche; Indianapolis, IN). Statistical significance ([…] vs. 0 dose; one way ANOVA Dunnett's post hoc) was calculated using GraphPad Prism software (La Jolla, Ca).
On study day 1 and study day 14 body composition was analyzed using Quantitative Nuclear Magnetic Resonance EchoMRI analyzer (EMR-166-s, EchoMRI; Houston Tx). […] Change in mass is calculated by subtraction of […].
On study day 15, following tail bleed for blood glucose, animals were sacrificed by C02 asphyxiation and the right tibialis anterior muscle was dissected. […] Weight was recorded and, in the case of relative weight, Tibialis anterior weight in milligrams was divided by body weight in grams. […]

[2] = Association state determination by Sedimentation Velocity Analytical UltraCentrifugation (SV-AUC); type: physicochemical
Experimental: SV-AUC was performed at 20° C. using a Beckman Optima with AN 60 Ti rotor and final rotor speed of 60,000 rpm. Peptides were dialyzed into 5 mM phosphate pH 7 or 1× phosphate buffered saline (PBS) pH 7.2. Samples were adjusted to the desired concentration (0.1 mg/mL, 1 mg/mL, or 10 mg/mL) using relevant buffer as needed. Both samples and buffer were passed through […] PVDF centrifugal filter units. The filtered samples were loaded into the sample sectors of the cells; filtered buffer alone was loaded in the reference sector of the cells. A Wavelength Scan was performed as the first step to choose a suitable lambda […] value for the given compound with 1-1.2 OD at the concentration(s) tested; this value was generally between 225 nm and 254 nm and used for Method Scan in the next step. In the Method Scan, both absorbance and interference detection modules were used. Temperature equilibration was set as first stage with 0 rpm rotor speed for 3 hours. Sedimentation velocity was set as second stage with rotor speed at 60,000 rpm. 300 scans with frequency of 60 seconds or 500 scan counts with frequency of 120 seconds were performed at the designated wavelength. Data were analyzed with SEDFIT software wherein a continuous c(s) distribution model was applied; the setting of relevant parameters is shown in Table 4 and Table 5; sedimentation coefficient (s) values were reported in Svedherg units (S).
The experiment to characterize a compound comprising SEQ ID NO:54 was performed at 300 scan counts with frequency of 60 seconds; for all other tested polypeptides, the experiments were performed at 500 scan counts with frequency of 120 seconds.

[3] = 0.1 mg/mL, 1x PBS, pH 7.2, 20° C.

## CC[C@H](C)[C@H](NC)C(=O)N[C@H](C(=O)N[C@@H](CC(C)C)C(=O)N[C@@H](CO)C(=O)N[C@@H](CC(C)C)C(=O)N[C@@H](CC(=O)O)C(=O)N[C@H](C(=O)N1CCC[C@H]1C(=O)N[C@H](C(=O)NCC(=O)N[C@@H](CC(C)C)C(=O)N[C@@H](CC(C)C)C(=O)N[C@@H](CCC(N)=O)C(=O)N[C@H](C(=O)N[C@@H](CC(C)C)C(=O)N[C@@H](CC(C)C)C(=O)N[C@@H](CCC(=O)O)C(=O)N[C@@H](CCC(N)=O)C(=O)N[C@@H](CCC(=O)O)C(=O)N[C@@H](CCCCN)C(=O)N[C@@H](CCC(N)=O)C(=O)N[C@@H](CCC(=O)O)C(=O)N[C@@H](CCCCN)C(=O)N[C@@H](CCC(=O)O)C(=O)N[C@@H](CCCCN)C(=O)N[C@@H](CCC(N)=O)C(=O)N[C@@H](CCC(N)=O)C(=O)N[C@@H](C)C(=O)N[C@@H](CCCCNC(=O)COCCOCCNC(=O)COCCOCCNC(=O)CC[C@H](NC(=O)CC[C@H](NC(=O)CCCCCCCCCCCCCCCCCCC(=O)O)C(=O)O)C(=O)O)C(=O)N[C@H](C(=O)N[C@@H](CC(N)=O)C(=O)N[C@@H](C)C(=O)N[C@@H](CCC(N)=O)C(=O)N[C@H](C(=O)N[C@@H](CC(C)C)C(=O)N[C@@H](C)C(=O)N[C@@H](CCC(N)=O)C(=O)N[C@H](C(N)=O)C(C)C)[C@@H](C)CC)[C@@H](C)O)[C@@H](C)CC)[C@@H](C)CC)C(C)C)C(C)C [SEQ ID NO: 54] (H-[NMeI]VLSLDVPIGLLQILLEQEKQEKEKQQAK([AEEA-AEEA-γGlu-γGlu-C20 diacid])TNAQILAQV-NH2)
[1]
  Fat mass change: -4.05 g
  body weight change: -3.75 g
  fasting blood glucose (% reduction from vehicle): 37.01%
  lean mass change: 0.60 g
[2]; [3]
  Mw (SEDFIT), apparent molecular weight: 38787 Da
  Sedimentation Coefficient: 3.5 S
  Sedimentation Coefficient species (% of total): 89%
[2]; 0.1, 1 and 10 mg/mL for SEQ ID NO:54
  self-association state from sedimentation coefficients: higher order oligomers were the major species
